Values quoted from earlier work, collected in paper PMC7894237 (Inflammation Research, 2021).
Read-outs that look alike come from different tables or passages of the source.

How the values were obtained:
[1] = tested on: patients with COVID-19 who developed ARDS
[2] = tested on: patients with multicentric Castleman disease
[3] = tested on: Castleman’s disease
[4] = tested on: patients with CAPS
[5] = tested on: AAK1
[6] = tested on: patients with rheumatoid arthritis
[7] = tested on: severe cases of COVID-19; settings: compared with the control group
[8] = tested on: patients with SARS infection; settings: human, in vivo
[9] = tested on: SARS-CoV1 replication in Vero cells
[10] = tested on: SARS-CoV1 replication in Vero cells; remark: listed apart in the source
[11] = tested on: COVID-19 patients; settings: single 300 mg dose subcutaneously, ten patients
[12] = tested on: severe cases of COVID-19
[13] = tested on: patients with COVID-19
[14] = tested on: COVID-19 pneumonia
[15] = not given; remark: listed apart in the source
[16] = not given; remark: listed apart in the source
[17] = not given; remark: listed apart in the source
[18] = tested on: sHLH/MAS patients; settings: five adult patients, IV infusions up to 2400 mg/day
[19] = tested on: patients with severe sepsis with hyper-inflammation; settings: phase 3 randomized clinical trial
[20] = tested on: patient with severe COVID-19; settings: anakinra started day 10 after hospital admission
[21] = tested on: patients with COVID-19; settings: nine patients
[22] = tested on: AAK1; settings: compared with ruxolitinib and fedratinib
[23] = tested on: COVID-19 particle entry in human lung host cells; settings: via inhibiting AAK1 and binding to GAK
[24] = tested on: IL-6 and GM-CSF levels
[25] = tested on: IL-1α, IL-1β, and TNF-α
[26] = tested on: patients with COVID-19; settings: patient, died 13 days after hospitalization
[27] = tested on: malaria; settings: deficient mice
[28] = tested on: influenza; settings: pre-treatment, same dose of subtypes
[29] = of those who experienced a worsening

## siltuximab: monoclonal antibody of IL-6
[1]; 21 patients, follow-up 8 days
  patients with improvement in their condition with a reduced need for ventilation: 33%
  patients with worsening of their condition who required intubation: 24%
[1]; 21 patients, intravenous 700-1200 mg, follow-up 8 days
  patients with serum CRP levels reduced to within the normal range: 16 patients
[1]; [29]
  patients who developed a cerebrovascular event: one
  patients who died: one
[2]; 3/60 patients
  side effect: vomiting: 5%
[2]; 4/60 patients
  side effect: nausea: 7%
  side effect: neutropenia: 7%
[2]; 5/60 patients
  side effect: fatigue: 8%
[2]; 8/60 patients
  side effect: hypertension: 13%
[2]; 25/60 patients
  side effect: infection: 42%
[2]; 60 patients
  deaths: no deaths
[3]; Castleman’s disease
  maximum tolerated dose: 100 mg twice weekly
[3]; day 8 of siltuximab treatment
  median decrease in hepcidin levels: 47%
[3]; every 3 weeks
  dose at which maximum suppression of CRP level was observed: 12 mg/kg
other
  half-life: 391 ± 101 h

## rilonacept
[4]
  major side effects: reactions at injection-site, upper respiratory tract infections, sinusitis, cough, hypoesthesia, nausea, diarrhea, stomach discomfort, and urinary tract infections
[4]; week six, pre-treatment baseline value = 22 mg/L
  serum CRP level: 2 mg/L

## C[C@@H]1CCN(C(=O)CC#N)C[C@@H]1N(C)c1ncnc2[nH]ccc12 [tofacitinib]
[5]
  inhibition of AAK1: does not significantly inhibit
[6]
  CRP level and erythrocyte sedimentation rates: decreased CRP level and erythrocyte sedimentation rates (ESR)
  major side effects: increasing both low-density lipoprotein (LDL) and high-density lipoprotein (HDL) levels, and decreasing blood neutrophils

## N#CC[C@H](C1CCCC1)n1cc(-c2ncnc3[nH]ccc23)cn1 [ruxolitinib]
[7]
  clinical improvement: faster clinical improvement

## IFN-α
[8]
  therapeutic effect: inconclusive
[9]
  effect on SARS-CoV1 replication: inhibited synergistically
[10]
  sensitivity of SARS-CoV1 to the interferon: only weakly sensitive

## canakinumab: high affinity, monoclonal anti-IL-1β antibody
[11]
  tolerability: well tolerated, with no recorded injection site reactions, infection, or side-effects

## tocilizumab: recombinant humanized anti-interleukin-6 receptor monoclonal antibody
[12]; 10/19 patients
  patients whose lymphocyte number returned to normal values: 52.6%
[12]; 16/19 patients
  patients whose abnormal elevated C-reactive protein returned to normal values: 84.2%
[12]; 5 days after administration, 15/ 20 patients
  patients with lowered oxygen intake: 75%
[12]; all patients
  side effects: No obvious side effects
[13]
  patients in whom the high level of CRP was suppressed rapidly: 11/15
[13]; after tocilizumab therapy
  patients with decreased serum IL-6 levels: ten
[14]; after tocilizumab therapy
  need for mechanical ventilation: did not require mechanical ventilation
[14]; single administration in combination with hydroxychloroquine
  treatment outcome: successfully treated
[15]
  major side-effects: general infections, hepatotoxicity, hypertriglyceridemia, as well as diverticulitis

## anakinra: recombinant IL-1R antagonist; blocks the binding of both IL-1α and IL-1β to IL-1R
[16]
  half-life: 4 to 6 h
[16]; subcutaneous route
  bioavailability: 95%
[16]; subcutaneous route, different chronic inflammatory conditions
  plasma concentrations: adequate and consistent plasma concentrations
[17]; chronic anakinra therapy
  side effects observed: reaction at the site of injection and infection
[17]; specific IL-1β-targeting agents
  organ toxicities or gastrointestinal disturbances: no organ toxicities or gastrointestinal disturbances
[18]
  therapeutic effect: reduced cytokine storm and subsequent clinical improvement
[19]
  side effects: without markedly side effects
  therapeutic effect: beneficial
[20]
  day on which patient was discharged from the ICU: 18 days
  day on which respiratory function improved: 13 days
[21]
  therapeutic effect: prevents mechanical ventilation and decreases serum inflammatory markers
  toxicity: no toxicity

## CCS(=O)(=O)N1CC(CC#N)(n2cc(-c3ncnc4[nH]ccc34)cn2)C1 [baricitinib]
[22]
  affinity to AAK1: more affinity to AAK1
[23]
  COVID-19 particle entry: can reduce the COVID-19 particle entry
[24]
  IL-6 and GM-CSF levels: can decrease

## C=C1CC[C@H](O)C/C1=C/C=C1\CCC[C@]2(C)[C@@H]([C@H](C)/C=C/[C@H](C)C(C)C)CC[C@@H]12 [vitamin D]
[25]
  expression of pro-inflammatory markers: suppressing the expression of pro-inflammatory markers

B1: sarilumab: human monoclonal antibody directed against the alpha subunit of the IL-6R (antibody, chains of the INN, looked up, V domains shown)
VH: EVQLVESGGGLVQPGRSLRLSCAASRFTFDDYAMHWVRQAPGKGLEWVSGISWNSGRIGYADSVKGRFTISRDNAENSLFLQMNGLRAEDTALYYCAKGRDSFDIWGQGTMVTVSS
VL: DIQMTQSPSSVSASVGDRVTITCRASQGISSWLAWYQQKPGKAPKLLIYGASSLESGVPSRFSGSGSGTDFTLTISSLQPEDFASYYCQQANSFPYTFGQGTKLEIK
[26]
  patients with no improvement in lung function who died: one

B2: interferon-gamma: Type II IFN (protein, UniProt P01579 24-161, looked up)
Interferon gamma: QDPYVKEAENLKKYFNAGHSDVADNGTLFLGILKNWKEESDRKIMQSQIVSFYFKLFKNFKDDQSIQKSVETIKEDMNVKFFNSNKKKRDDFEKLTNYSVTDLNVQRKAIHELIQVMAELSPAAKTGKRKRSQMLFRG
[10]
  sensitivity of SARS-CoV1 to the interferon: only weakly sensitive

B3: recombinant soluble IL-6R: recombinant soluble IL-6R, mimic the trans-signaling of IL-6 (protein, UniProt P08887 20-365, looked up)
extracellular domain: LAPRRCPAQEVARGVLTSLPGDSVTLTCPGVEPEDNATVHWVLRKPAAGSHPSRWAGMGRRLLLRSVQLHDSGNYSCYRAGRPAGTVHLLVDVPPEEPQLSCFRKSPLSNVVCEWGPRSTPSLTTKAVLLVRKFQNSPAEDFQEPCQYSQESQKFSCQLAVPEGDSSFYIVSMCVASSVGSKFSKTQTFQGCGILQPDPPANITVTAVARNPRWLSVTWQDPHSWNSSFYRLRFELRYRAERSKTFTTWMVKDLQHHCVIHDAWSGLRHVVQLRAQEEFGQGEWSEWSPEAMGTPWTESRSPPAENEVSTPMQALTTNKDDDNILFRDSANATSLPVQDSSSVPLP
modifications: extracellular domain
[27]
  outcome of malaria: restores the lethal outcome of malaria

B4: IFN-α5: type I IFN subtype (protein, UniProt P01569 22-189, looked up)
Interferon alpha-5: LGCDLPQTHSLSNRRTLMIMAQMGRISPFSCLKDRHDFGFPQEEFDGNQFQKAQAISVLHEMIQQTFNLFSTKDSSATWDETLLDKFYTELYQQLNDLEACMMQEVGVEDTPLMNVDSILTVRKYFQRITLYLTEKKYSPCAWEVVRAEIMRSFSLSANLQERLRRKE
[28]
  effect on viral load: more suppressive effects on the viral load than IFN-α1

B5: IFN-α6: type I IFN subtype (protein, UniProt P05013 21-189, looked up)
Interferon alpha-6: SLDCDLPQTHSLGHRRTMMLLAQMRRISLFSCLKDRHDFRFPQEEFDGNQFQKAEAISVLHEVIQQTFNLFSTKDSSVAWDERLLDKLYTELYQQLNDLEACVMQEVWVGGTPLMNEDSILAVRKYFQRITLYLTEKKYSPCAWEVVRAEIMRSFSSSRNLQERLRRKE
[28]
  effect on viral load: more suppressive effects on the viral load than IFN-α1
